For eight compounds, Ki and inhibition results are on record in patent publication US5981520A, “Piperazino derivatives as neurokinin antagonists” (Schering Corporation, priority 1998, dated 1999).

Experiment [1] deals with T1, human neurokinin 1 (NK1) receptor (Homo sapiens, UniProt P25103).
T1 construct: expressed in transfected cells; host or cells: Chinese Hamster ovary (CHO) cells
Put plainly: Neurokinin receptor binding assay, NK1 ([3H]-Substance P, CHO membranes). Conditions: for Ki: racemic compounds except specifically defined enantiomers. Here is the method:
(§1) Chinese Hamster ovary (CHO) cells transfected with the coding regions for the human neurokinin 1 (NK1) of the human neurokinin 2 (NK2) receptors are grown in Dulbecco's minimal essential medium supplemented with 10% fetal calf serum, 0.1 mM non-essential amino acids, 2 mM glutamine, 100 units/ml of penicillin and streptomycin, and 0.8 mg of G418/ml at 37° C. in a humidified atmosphere containing 5% CO2.
(§2) Cells are harvested by centrifugation and washed in RPMI media at […] for 5 minutes. The pellet is resuspended inTris-HCl (pH7.4) containing 1 uM phosphoramidon and 4 ug/ml of chymostatin at a cell density of 30×10^6 cells/ml. The suspension is then homogenized in a Brinkman Polytron (setting 5) for 30-45 seconds. The homogenate is centrifuged at 800×g for 5 min at 4° C. to collect unbroken cells and nuclei. The supematant is centrifuged in a Sorvall RC5C at 19,000 rpm ([…]) for 30 min at 4° C. The pellet is resuspended, an aliquot is removed for a protein determination (BCA) and washed again. The resulting pellet is stored at -80° C.
(§3) Binding is initiated by the addition of 100 μl of membrane (10-20 μg) containing the human NK-1 or NK-2 receptor in a final volume of 200 μl. After 40 minutes at room temperature, the reaction is stopped by rapid filtration onto Whatman GF/C filters which have been presoaked in 0.3% polyethylenimine. Filters are washed 2 times with 3 ml of 50 mM Tris-HCl (pH7.4).

Experiment [2] deals with T2, human neurokinin 2 (NK2) receptor (Homo sapiens, UniProt P21452).
T2 construct: expressed in transfected cells; host or cells: Chinese Hamster ovary (CHO) cells
T2 sequence (P21452 1-398): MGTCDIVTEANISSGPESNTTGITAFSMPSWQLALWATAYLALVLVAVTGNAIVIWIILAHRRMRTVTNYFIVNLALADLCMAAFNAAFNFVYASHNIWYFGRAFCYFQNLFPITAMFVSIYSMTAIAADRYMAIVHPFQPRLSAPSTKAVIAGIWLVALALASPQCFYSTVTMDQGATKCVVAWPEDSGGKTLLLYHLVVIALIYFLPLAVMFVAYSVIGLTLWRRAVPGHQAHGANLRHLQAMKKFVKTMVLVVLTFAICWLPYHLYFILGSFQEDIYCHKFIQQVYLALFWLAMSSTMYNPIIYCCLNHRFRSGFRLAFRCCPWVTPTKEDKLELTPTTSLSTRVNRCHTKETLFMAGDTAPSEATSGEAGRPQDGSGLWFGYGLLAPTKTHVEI
Put plainly: Neurokinin receptor binding assay, NK2 ([3H]-Neurokinin A, CHO membranes). Conditions: for Ki: racemic compounds except specifically defined enantiomers. The procedure: as §1, §2, §3

The target of experiment [3] is T3, NK3 (Homo sapiens, UniProt P29371).
T3 sequence (P29371 1-465): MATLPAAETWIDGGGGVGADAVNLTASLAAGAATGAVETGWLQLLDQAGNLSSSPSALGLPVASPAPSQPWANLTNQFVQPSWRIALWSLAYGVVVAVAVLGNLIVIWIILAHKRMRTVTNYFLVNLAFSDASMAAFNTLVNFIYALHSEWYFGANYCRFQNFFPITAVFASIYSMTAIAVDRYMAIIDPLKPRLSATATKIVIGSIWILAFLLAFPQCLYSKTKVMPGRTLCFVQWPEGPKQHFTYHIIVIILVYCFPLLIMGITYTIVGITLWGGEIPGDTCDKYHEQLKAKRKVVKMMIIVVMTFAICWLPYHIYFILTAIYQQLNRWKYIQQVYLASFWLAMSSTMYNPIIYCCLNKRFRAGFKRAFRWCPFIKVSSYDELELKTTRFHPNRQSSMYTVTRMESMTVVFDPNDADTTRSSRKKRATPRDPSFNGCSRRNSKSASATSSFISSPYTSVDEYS
The experiment is described as follows: NK3 radioligand receptor binding assay as described in the literature. Conditions: racemic compounds except specifically defined enantiomers.

For orientation: Ki means a dissociation constant, usually derived from enzyme kinetics or from competition with a known ligand. A lower Ki goes with tighter binding. The inhibition is the share of the control response that was lost under treatment. A lower inhibition goes with little suppression.

T1 sequence (P25103 whole entry): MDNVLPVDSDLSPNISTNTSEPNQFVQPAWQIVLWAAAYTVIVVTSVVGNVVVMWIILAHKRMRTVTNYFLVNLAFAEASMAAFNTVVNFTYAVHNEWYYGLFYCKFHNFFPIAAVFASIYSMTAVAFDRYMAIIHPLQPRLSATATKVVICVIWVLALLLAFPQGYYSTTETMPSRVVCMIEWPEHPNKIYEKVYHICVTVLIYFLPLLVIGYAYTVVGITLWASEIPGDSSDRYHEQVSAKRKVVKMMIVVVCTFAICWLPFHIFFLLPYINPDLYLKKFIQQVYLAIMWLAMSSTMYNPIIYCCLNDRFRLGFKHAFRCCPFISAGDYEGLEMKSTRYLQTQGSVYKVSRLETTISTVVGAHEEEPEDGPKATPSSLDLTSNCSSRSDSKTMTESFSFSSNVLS

In the case of `COc1ccc(C2CN(C(=O)c3cc(C(F)(F)F)cc(C(F)(F)F)c3)CCN2C(=O)CNC2CCN(Cc3ccccc3)CC2)cc1` (stereo not drawn), the Ki in experiment [1] was determined as 2.5 nM; in experiment [2] it was 48 nM.
With `O=C(C1c2ccccc2Oc2ccccc21)N1CCN(C(=O)CNC2CCN(Cc3ccccc3)CC2)C(c2ccc(Cl)c(Cl)c2)C1` (stereo not drawn), the values for the Ki in experiment [1] and in experiment [2] were 117 nM and 187 nM, respectively.
`O=C(c1cc(C(F)(F)F)cc(C(F)(F)F)c1)N1CCN(C(=O)CNC2CCN(Cc3ccccc3)CC2)C(c2ccc(Cl)c(Cl)c2)C1` (stereo not drawn) registered a Ki in experiment [3] of 433 nM.
Consider `CC(C)(C)c1cc(C(=O)N2CCN(C(=O)CNC3CCN(Cc4ccccc4)CC3)C(c3ccc(Cl)c(Cl)c3)C2)cc(C(C)(C)C)c1` (stereo not drawn), for which the Ki in experiment [1] was 63 nM; in experiment [2] it was 68 nM.
The matching figures for `Cc1cc(C)cc(C(=O)N2CCN(C(=O)C[N+](C)(C)C3CCN(Cc4ccccc4)CC3)C(c3ccc(Cl)c(Cl)c3)C2)c1` (stereo not drawn): 0.58 nM and 93 nM.
In turn, `CN(CC(=O)N1CCN(Cc2cc(C(F)(F)F)cc(C(F)(F)F)c2)CC1c1ccc(Cl)c(Cl)c1)C1CCN(Cc2ccccc2)CC1` (stereo not drawn) registered a Ki in experiment [1] of 74 nM. 1 µM produced 7% inhibition in experiment [2].
For `O=C(c1cc(O)cc(O)c1)N1CCN(C(=O)CNC2CCN(Cc3ccccc3)CC2)C(c2ccc(Cl)c(Cl)c2)C1` (stereo not drawn), the inhibition at 1 µM worked out at 14% in experiment [1] and 22% in experiment [2].
As to `O=C(c1ccccc1)N1CCN(C(=O)CNC2CCN(Cc3ccccc3)CC2)C(c2ccc(Cl)c(Cl)c2)C1` (stereo not drawn), the Ki in experiment [1] worked out at 93 nM; in experiment [2], 3.4 nM.
